According to the supplement of paper PMC10307832:

Assays:
Experiment in all cases: relative viability (nuclei count vs DMSO), 5 days (fraction); higher = more cells survive
KN-93 + OSI-027 = compound: CN(C/C=C/C1=CC=C(C=C1)Cl)CC2=CC=CC=C2N(CCO)S(=O)(=O)C3=CC=C(C=C3)OC [KN-93] + COc1cccc2cc(-c3nc([C@H]4CC[C@H](C(=O)O)CC4)n4ncnc(N)c34)[nH]c12 [OSI-027] (partner 0.5 µM)
Method in brief: (§1)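 The day after seeding in 1536-well plates, lung cancer cell lines were treated by pin tool with a single drug, or with a fixed anchor-drug dose together with five library-drug doses (not always all listed) in √10 steps. After 5 days, a combined fix-and-stain solution (final 0.05% Triton X-100, 1% formaldehyde, 1 ug/ml Hoechst) was added. Nuclei counted on 4× images gave relative viability as treated counts over vehicle counts, reported as the median of duplicate plates.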

KN-93 + Crizotinib = compound: CN(C/C=C/C1=CC=C(C=C1)Cl)CC2=CC=CC=C2N(CCO)S(=O)(=O)C3=CC=C(C=C3)OC [KN-93] + C[C@@H](Oc1cc(-c2cnn(C3CCNCC3)c2)cnc1N)c1c(Cl)ccc(F)c1Cl [Crizotinib] (partner 1 µM)
Method in brief: as §1

KN-93 + Phenformin = compound: CN(C/C=C/C1=CC=C(C=C1)Cl)CC2=CC=CC=C2N(CCO)S(=O)(=O)C3=CC=C(C=C3)OC [KN-93] + N=C(N)NC(=N)NCCc1ccccc1 [Phenformin] (partner 250 µM)
Method in brief: as §1

KN-93 + Alpelisib = compound: CN(C/C=C/C1=CC=C(C=C1)Cl)CC2=CC=CC=C2N(CCO)S(=O)(=O)C3=CC=C(C=C3)OC [KN-93] + Cc1nc(NC(=O)N2CCC[C@H]2C(N)=O)sc1-c1ccnc(C(C)(C)C(F)(F)F)c1 [Alpelisib] (partner 2 µM)
Method in brief: as §1

KN-93 + Foretinib = compound: CN(C/C=C/C1=CC=C(C=C1)Cl)CC2=CC=CC=C2N(CCO)S(=O)(=O)C3=CC=C(C=C3)OC [KN-93] + COc1cc2c(Oc3ccc(NC(=O)C4(C(=O)Nc5ccc(F)cc5)CC4)cc3F)ccnc2cc1OCCCN1CCOCC1 [Foretinib] (partner 0.25 µM)
Method in brief: as §1

| Cell Line | relative viability (KN-93 + OSI-027; first compound 0.08 µM) | relative viability (KN-93 + OSI-027; first compound 0.253 µM) | relative viability (KN-93 + OSI-027; first compound 2.53 µM) | relative viability (KN-93 + OSI-027; first compound 8 µM) | relative viability (KN-93 + Crizotinib; first compound 0.08 µM) | relative viability (KN-93 + Crizotinib; first compound 0.253 µM) | relative viability (KN-93 + Crizotinib; first compound 2.53 µM) | relative viability (KN-93 + Crizotinib; first compound 8 µM) | relative viability (KN-93 + Phenformin; first compound 0.08 µM) | relative viability (KN-93 + Phenformin; first compound 0.253 µM) | relative viability (KN-93 + Phenformin; first compound 2.53 µM) | relative viability (KN-93 + Phenformin; first compound 8 µM) | relative viability (KN-93 + Alpelisib; first compound 0.08 µM) | relative viability (KN-93 + Alpelisib; first compound 0.253 µM) | relative viability (KN-93 + Alpelisib; first compound 2.53 µM) | relative viability (KN-93 + Alpelisib; first compound 8 µM) | relative viability (KN-93 + Foretinib; first compound 0.08 µM) | relative viability (KN-93 + Foretinib; first compound 0.253 µM) | relative viability (KN-93 + Foretinib; first compound 2.53 µM) | relative viability (KN-93 + Foretinib; first compound 8 µM) |
| --- | --- | --- | --- | --- | --- | --- | --- | --- | --- | --- | --- | --- | --- | --- | --- | --- | --- | --- | --- | --- |
| HCC-78 | 0.388 | 0.315 | 0.387 | 0.339 | 0.336 | 0.312 | 0.37 | 0.312 | 0.769 | 0.664 | 0.636 | 0.652 | 0.385 | 0.276 | 0.393 | 0.212 | 0.564 | 0.475 | 0.579 | 0.525 |
| HCC-366 | 0.758 | 0.696 | 0.894 | 0.235 | – | 0.609 | 0.68 | 0.129 | 0.595 | 0.661 | 0.639 | 0.277 | – | 0.394 | 0.507 | 0.172 | 0.909 | 1.02 | 0.796 | 0.379 |
| HCC-827 | 0.729 | 0.777 | 0.991 | 0.565 | 0.993 | 0.996 | 0.908 | 0.778 | 0.417 | 0.385 | 0.479 | 0.407 | 0.959 | 0.985 | 0.962 | 0.755 | 1.05 | 1.09 | 0.931 | 0.577 |
| HOP-62 | 0.855 | 1.08 | 1.07 | 0.537 | 0.936 | 1.09 | 1.15 | 0.952 | 0.525 | 0.835 | 0.849 | 0.741 | 1.1 | 1.22 | 1.22 | 0.866 | 1.2 | 1.22 | 1.26 | 0.958 |
| IA-LM | – | – | – | – | 0.745 | 0.822 | 0.975 | 0.431 | – | – | – | – | 0.765 | 0.746 | 0.773 | 0.778 | – | 1.36 | 1.3 | 0.926 |
| LC-2-ad | 0.874 | 0.964 | 0.842 | 0.707 | 0.453 | 0.459 | 0.474 | 0.43 | 0.651 | 0.678 | 0.645 | 0.553 | 0.815 | 0.945 | 0.84 | 0.53 | 0.992 | 1.01 | 0.915 | 0.699 |
| LCLC-97TM1 | 0.461 | 0.634 | 0.561 | 0.353 | 0.321 | – | 0.379 | 0.255 | 0.418 | 0.494 | 0.488 | 0.407 | 0.282 | – | 0.217 | 0.206 | 0.955 | 0.978 | 0.895 | 0.74 |
| LCLC-103H | 0.446 | 0.455 | 0.356 | 0.309 | 1.06 | 1.13 | 1.08 | 0.776 | 0.319 | 0.341 | 0.359 | 0.31 | 1 | 0.994 | 0.92 | 0.861 | 0.901 | 1.01 | 0.799 | 0.536 |
